Source: patent publication US11964988B2, “Fused heterocyclic compounds as RET kinase inhibitors” (ARRAY BIOPHARMA INC., priority 2018, dated 2024)

Assays:
[1] = biological target: RET kinase Wild Type (Homo sapiens, UniProt P07949); test: biochemical;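 also: HTRF kinase activity assay on RET enzyme, 1 h reaction at 22 °C, dual-wavelength readout as percent of control, DMSO-only wells as 100%, pre-quenched reactions as 0%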
[2] = biological target: G810R mutant RET kinase (Homo sapiens, UniProt P07949, G810R); test: biochemical;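 also: HTRF KinEASE-TK enzymatic assay with 1 nM recombinant RET G810R, 1 h at 22 °C, dual-wavelength ratiometric readout, 100% control without compound, 0% from pre-quenched reactions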
Chain of G810R mutant RET kinase (P07949 29-1114 G810R): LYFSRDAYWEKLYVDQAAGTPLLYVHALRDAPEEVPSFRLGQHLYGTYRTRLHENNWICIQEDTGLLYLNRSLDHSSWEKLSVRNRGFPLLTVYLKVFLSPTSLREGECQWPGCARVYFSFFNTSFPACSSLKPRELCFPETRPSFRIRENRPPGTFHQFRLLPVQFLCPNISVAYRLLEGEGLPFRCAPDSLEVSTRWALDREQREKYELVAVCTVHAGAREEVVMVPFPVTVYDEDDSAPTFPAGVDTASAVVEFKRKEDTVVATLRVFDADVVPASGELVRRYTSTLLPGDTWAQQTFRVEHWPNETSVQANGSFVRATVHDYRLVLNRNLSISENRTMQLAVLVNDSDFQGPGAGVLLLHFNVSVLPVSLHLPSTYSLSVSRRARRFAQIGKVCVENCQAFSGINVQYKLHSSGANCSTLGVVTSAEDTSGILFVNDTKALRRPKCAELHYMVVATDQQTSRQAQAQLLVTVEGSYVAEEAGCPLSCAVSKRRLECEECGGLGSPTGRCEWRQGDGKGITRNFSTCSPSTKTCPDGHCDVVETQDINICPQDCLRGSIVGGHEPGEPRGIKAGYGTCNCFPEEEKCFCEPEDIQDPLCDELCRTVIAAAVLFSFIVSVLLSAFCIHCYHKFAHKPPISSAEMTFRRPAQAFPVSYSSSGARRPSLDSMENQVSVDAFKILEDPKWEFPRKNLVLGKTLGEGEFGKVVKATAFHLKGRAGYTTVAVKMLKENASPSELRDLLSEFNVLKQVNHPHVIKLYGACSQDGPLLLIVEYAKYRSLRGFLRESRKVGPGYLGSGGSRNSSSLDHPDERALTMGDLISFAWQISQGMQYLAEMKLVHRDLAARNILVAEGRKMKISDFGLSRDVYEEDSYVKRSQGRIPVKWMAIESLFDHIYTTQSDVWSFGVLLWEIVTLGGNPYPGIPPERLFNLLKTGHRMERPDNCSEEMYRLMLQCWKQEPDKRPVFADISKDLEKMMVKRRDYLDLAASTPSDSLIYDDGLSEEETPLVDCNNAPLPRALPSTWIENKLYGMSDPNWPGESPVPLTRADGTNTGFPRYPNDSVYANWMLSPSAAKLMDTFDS

[3] = biological target: G810S mutant RET kinase (Homo sapiens, UniProt P07949, G810S); test: biochemical;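 also: HTRF KinEASE-TK kinase assay with recombinant enzyme, 1 h at 22 °C, dual-wavelength ratiometric read-out, percent of control (DMSO-only = 100, pre-quenched reaction = 0)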
Chain of G810S mutant RET kinase (P07949 29-1114 G810S): as the sequence (P07949 29-1114 G810R) above, with R782S counted along it

[4] = biological target: RET kinase V804M (Homo sapiens, UniProt P07949, V804M); test: RET Enzyme Assay (CisBio HTRF KinEASE-TK), V804M; format: biochemical; conditions: read-out: RET V804M Enz FRET IC50
Chain of RET kinase V804M (P07949 29-1114 V804M): as the sequence (P07949 29-1114 G810R) above, with V776M, R782G counted along it

Chain of RET kinase Wild Type (P07949 29-1114): as the sequence (P07949 29-1114 G810R) above, with R782G counted along it

Structure (SMILES) | IC50 [1] [nM] | IC50 [2] [nM] | IC50 [3] [nM] | IC50 [4] [nM]
CC(C)n1c2c(c3c(N)ncnc31)-c1cc3ccc(C(=O)Nc4ccn(CC(=O)N(C)C)n4)cc3n1CCC2 [Example 99, 1-amino-N-(1-(2-(dimethylamino)-2-oxoethyl)-1H-pyrazol-3-yl)-5-isopropyl-5,6,7,8-tetrahydropyrimido[5″,4″:4′,5′]pyrrolo[3′,2′: 3,4]azepino[1,2-a]indole-11-carboxamide] | 881 | 2210 | 3250 | 
COc1ccc(-n2c3c(c4c(N)ncnc42)-c2noc(C4CC4)c2C(O)CC3)cn1 (centres unmarked) [Example 114, 11-Amino-3-cyclopropyl-7-(6-methoxypyridin-3-yl)-4,5,6,7-tetrahydroisoxazolo[4″,3″:6′,7′]cyclohepta[1′,2′:4,5]pyrrolo[2,3-d]pyrimidin-4-ol 2,2,2-trifluoroacetate] | 357 | 435 | 282 | 1050
CC(=O)N1CCC(n2c3c(c4c(N)ncnc42)-c2noc(C4CC4)c2C(O)CC3)C1 (centres unmarked) [Example 134, 1-(3-(11-amino-3-cyclopropyl-4-hydroxy-5,6-dihydroisoxazolo[4″,3″:6′,7′]cyclohepta[1′,2′:4,5]pyrrolo[2,3-d]pyrimidin-7(4H)-yl)pyrrolidin-1-yl)ethan-1-one 2,2,2-trifluoroacetate] | 112 | 560 | 488 | 355
COc1ccc(CCN2Cc3c(c4c(N)ncnc4n3C(C)C)-c3noc(C4CC4)c3C2=O)cc1 [Example 14, 11-amino-3-cyclopropyl-7-isopropyl-5-(4-methoxyphenethyl)-6,7-dihydroisoxazolo[4,3-c]pyrimido[5′,4′:4,5]pyrrolo[3,2-e]azepin-4(5H)-one] | 112 | 252 | 293 | 865
CC(C)n1c2c(c3c(N)ncnc31)-c1noc(C3CC3)c1C(=O)N(C1CCN(Cc3ccccc3)C1)C2 (centres unmarked) [Example 17, 11-amino-5-(1-benzylpyrrolidin-3-yl)-3-cyclopropyl-7-isopropyl-6,7-dihydroisoxazolo[4,3-c]pyrimido[5′,4′:4,5]pyrrolo[3,2-e]azepin-4(5H)-one] | 49 | 533 | 433 | 241
CC(C)n1c2c(c3c(N)ncnc31)-c1noc(C3CC3)c1C(=O)N(CCN1CCS(=O)(=O)CC1)C2 [Example 9, 11-amino-3-cyclopropyl-5-(2-(1,1-dioxidothiomorpholino)ethyl)-7-isopropyl-6,7-dihydroisoxazolo[4,3-c]pyrimido[5′,4′:4,5]pyrrolo[3,2-e]azepin-4(5H)-one] | 103 | 224 | 298 | 533
CC(C)n1c2c(c3c(N)ncnc31)-c1noc(C3CC3)c1CN(CCO)C2 [Example 40, 2-(11-amino-3-cyclopropyl-7-isopropyl-6,7-dihydroisoxazolo[4,3-c]pyrimido[5′,4′:4,5]pyrrolo[3,2-e]azepin-5(4H)-yl)ethan-1-ol 2,2,2-trifluoroacetate] | 621 | 724 | 973 | 2200
CC(C)n1c2c(c3c(N)ncnc31)-c1noc(C3CC3)c1CN(c1ccn(C)n1)C2 [Example 34, 3-cyclopropyl-7-isopropyl-5-(1-methyl-1H-pyrazol-3-yl)-4,5,6,7-tetrahydroisoxazolo[4,3-c]pyrimido[5′,4′:4,5]pyrrolo[3,2-e]azepin-11-amine] | 227 | 288 | 397 | 805
CC(C)n1c2c(c3c(N)ncnc31)-c1noc(C3CC3)c1CN(C(=O)C1CC1)C2 [Example 38, (11-amino-3-cyclopropyl-7-isopropyl-6,7-dihydroisoxazolo[4,3-c]pyrimido[5′,4′:4,5]pyrrolo[3,2-e]azepin-5(4H)-yl)(cyclopropyl)methanone] | 342 | 649 | 921 | 3120
Nc1ncnc2c1c1c(n2C2CCOC2)CCC(=O)c2c-1noc2C1CC1 (centres unmarked) [Example 141, 11-Amino-3-cyclopropyl-7-(tetrahydrofuran-3-yl)-6,7-dihydroisoxazolo[4″,3″:6′,7′]cyclohepta[1′,2′:4,5]pyrrolo[2,3-d]pyrimidin-4(5H)-one] | 139 | 211 | 405 | 415
CO[C@H]1CCc2c(c3c(N)ncnc3n2C(C)C)-c2noc(C3CC3)c21 (single isomer, unassigned) [Example 59] | 275 | 308 | 859 | 749
Nc1ncnc2[nH]c3c(c12)-c1noc(C2CC2)c1C(=O)NC3 [Example 66, 11-amino-3-cyclopropyl-6,7-dihydroisoxazolo[4,3-c]pyrimido[5′,4′:4,5]pyrrolo[3,2-e]azepin-4(5H)-one 2,2,2-trifluoroacetate] | 1790 | 2180 | 2300 | 6830
CC(C)n1c2c(c3c(N)ncnc31)-c1noc(C3CC3)c1CN(C(=O)Cc1ccccc1)C2 [Example 39, 1-(11-amino-3-cyclopropyl-7-isopropyl-6,7-dihydroisoxazolo[4,3-c]pyrimido[5′,4′:4,5]pyrrolo[3,2-e]azepin-5(4H)-yl)-2-phenylethan-1-one] | 893 | 3070 | 4140 | 
Cc1cc(NC(=O)c2ccc3cc4n(c3c2)CCCc2c-4c3c(N)ncnc3n2C(C)C)nn1C [Example 98, 1-amino-N-(1,5-dimethyl-1H-pyrazol-3-yl)-5-isopropyl-5,6,7,8-tetrahydropyrimido[5″,4″:4′,5′]pyrrolo[3′,2′: 3,4]azepino[1,2-a]indole-11-carboxamide] | 2210 | 4070 | 7950 | 
CCC(=O)N1Cc2c(noc2C2CC2)-c2c(n(C(C)C)c3ncnc(N)c23)C1 [Example 37, 1-(11-amino-3-cyclopropyl-7-isopropyl-6,7-dihydroisoxazolo[4,3-c]pyrimido[5′,4′:4,5]pyrrolo[3,2-e]azepin-5(4H)-yl)propan-1-one 2,2,2-trifluoroacetate] | 318 | 1280 | 1220 | 

The remaining lines, values ahead:

IC50 [1] [nM] | IC50 [2] [nM] | IC50 [3] [nM] | IC50 [4] [nM] | Structure (SMILES)
1780 | 1810 | 2270 |  | CC(C)n1c2c(c3c(N)ncnc31)-c1cnn(C3CC3)c1C(=O)NC2 [Example 109, 11-amino-3-cyclopropyl-7-isopropyl-3,5,6,7-tetrahydro-4H-pyrazolo[3,4-c]pyrimido[5′,4′:4,5]pyrrolo[3,2-e]azepin-4-one 2,2,2-trifluoroacetate]
195 | 320 | 404 |  | Cc1ccc2cc3n(c2c1)C(=O)NCc1c-3c2c(N)ncnc2n1C(C)C [Example 80, 1-amino-5-isopropyl-11-methyl-6,7-dihydropyrimido[5″,4″:4′,5′]pyrrolo[2′,3′: 5,6][1,3]diazepino[1,7-a]indol-8(5H)-one]
389 | 501 | 960 |  | COc1ccc2c(c1)cc1n2C(=O)NCc2c-1c1c(N)ncnc1n2C(C)C [Example 85, 1-amino-5-isopropyl-12-methoxy-6,7-dihydropyrimido[5″,4″:4′,5′]pyrrolo[2′,3′:5,6][1,3]diazepino[1,7-a]indol-8(5H)-one]
2180 | 2570 | 5080 |  | CC(C)n1c2c(c3c(N)ncnc31)-c1ccc(Cl)c(F)c1C(=O)NC2 [Example 50, 12-amino-3-chloro-4-fluoro-8-isopropyl-7,8-dihydrobenzo[c]pyrimido[5′,4′:4,5]pyrrolo[3,2-e]azepin-5(6H)-one]
356 | 270 | 591 |  | COc1ccc2cc3n(c2c1)C(=O)NCc1c-3c2c(N)ncnc2n1C(C)C [Example 79, 1-amino-5-isopropyl-11-methoxy-6,7-dihydropyrimido[5″,4″:4′,5′]pyrrolo[2′,3′: 5,6][1,3]diazepino[1,7-a]indol-8(5H)-one]
8420 |  |  |  | CC(C)n1c2c(c3c(N)ncnc31)-c1ccc(NC(=O)NC3CC3)cc1C(=O)NC2 [Example 49, 1-(12-amino-8-isopropyl-5-oxo-5,6,7,8-tetrahydrobenzo[c]pyrimido[5′,4′:4,5]pyrrolo[3,2-e]azepin-3-yl)-3-cyclopropylurea]
638 | 507 | 720 |  | CC(C)n1c2c(c3c(N)ncnc31)-c1cc3cc(C#N)ccc3n1C(=O)NC2 [Example 78, 1-amino-5-isopropyl-8-oxo-5,6,7,8-tetrahydropyrimido[5″,4″:4′,5′]pyrrolo[2′,3′: 5,6][1,3]diazepino[1,7-a]indole-12-carbonitrile]
404 | 2420 | 3270 |  | CC(C)n1c2c(c3c(N)ncnc31)-c1cc(C3CC3)nn1C(=O)NC2 [Example 106, 12-Amino-2-cyclopropyl-8-isopropyl-7,8-dihydropyrazolo[1,5-c]pyrimido[5′,4′:4,5]pyrrolo[3,2-e][1,3]diazepin-5(6H)-one]
358 | 420 | 821 |  | CC(C)n1c2c(c3c(N)ncnc31)-c1cc3ccc(C(F)(F)F)cc3n1C(=O)NC2 [Example 82, 1-amino-5-isopropyl-11-(trifluoromethyl)-6,7-dihydropyrimido[5″,4″:4′,5′]pyrrolo[2′,3′: 5,6][1,3]diazepino[1,7-a]indol-8(5H)-one]
182 | 244 | 634 |  | CC(C)n1c2c(c3c(N)ncnc31)-c1cc3ccc(Cl)cc3n1C(=O)NC2 [Example 84, 1-amino-11-chloro-5-isopropyl-6,7-dihydropyrimido[5″,4″:4′,5′]pyrrolo[2′,3′: 5,6][1,3]diazepino[1,7-a]indol-8(5H)-one]
2440 | 7880 |  |  | CC(C)n1c2c(c3c(N)ncnc31)-c1ccc(NC(=O)CC3CC3)cc1C(=O)NC2 [Example 48, N-(12-amino-8-isopropyl-5-oxo-5,6,7,8-tetrahydrobenzo[c]pyrimido[5′,4′:4,5]pyrrolo[3,2-e]azepin-3-yl)-2-cyclopropylacetamide]
